Assay results reported in patent US6667335B2, “Imidazole derivatives” (Hoffmann-La Roche Inc., priority 2001, dated 2003).
Structures can show the parent of a compound that is named as a salt.

Tests used:
NMDA-receptor subtype 2B = target: T1, NMDA-receptor subtype 2B (Rattus norvegicus, UniProt P35439+Q00960); assay: 3H-Ro 25-6981 binding (displacement) on rat brain membranes; settings: displacement of 5 nM 3H-Ro 25-6981, rat whole brain membranes (minus cerebellum and medulla oblongata), 2 hours at 4° C.
T1 construct: Membranes were prepared by homogenization of the whole brain minus cerebellum and medulla oblongata; from tissue; host or cells: rat whole brain minus cerebellum and medulla oblongata, membrane preparation
Protocol: ^3H[R-(R*,S*)]-(α-(4-Hydroxy-phenyl)-β-methyl-4-(phenyl-methyl)-1-piperidine propanol)binding
Male Füllinsdorf albino rats weighing between 150-200 g were used. Membranes were prepared by homogenization of the whole brain minus cerebellum and medulla oblongata with a Polytron (10.000 rpm, 30 seconds), in 25 volumes of a cold Tris-HCl 50 mM, EDTA 10 mM, pH 7.1 buffer. The homogenate was centrifuged at 48,000 g for 10 minutes at 4° C. The pellet was resuspended using the Polytron in the same volume of buffer and the homogenate was incubated at 37° C. for 10 minutes. After centrifugation the pellet was homogenized in the same buffer and frozen at −80° C. for at least 16 hours but not more than 10 days. For the binding assay the homogenate was thawed at 37° C., centrifuged and the pellet was washed three times as above in a Tris-HCl 5 mM, pH 7.4 cold buffer. The final pellet was resuspended in the same buffer and used at a final concentration of […]. ^3H-Ro 25-6981 binding experiments were performed using a Tris-HCl 50 mM, pH 7.4 buffer. For displacement experiments 5 nM of ^3H-Ro 25-6981 were used and non specific binding was measured using 10 mM of tetrahydroisoquinoline and usually it accounts for 10% of the total. The incubation time was 2 hours at 4° C. and the assay was stopped by filtration on Whatmann GF/B glass fiber filters (Unifilter-96, Packard, Zürich, Switzerland). The filters were washed 5 times with cold buffer. The radioactivity on the filter was counted on a Packard Top-count microplate scintillation counter after addition of […] of microscint 40 (Canberra Packard S.A., Zuirich, Switzerland).
The effects of compounds were measured using a minimum of 8 concentrations and repeated at least once.

T1 sequence (Q00960 27-1482, other chains not shown): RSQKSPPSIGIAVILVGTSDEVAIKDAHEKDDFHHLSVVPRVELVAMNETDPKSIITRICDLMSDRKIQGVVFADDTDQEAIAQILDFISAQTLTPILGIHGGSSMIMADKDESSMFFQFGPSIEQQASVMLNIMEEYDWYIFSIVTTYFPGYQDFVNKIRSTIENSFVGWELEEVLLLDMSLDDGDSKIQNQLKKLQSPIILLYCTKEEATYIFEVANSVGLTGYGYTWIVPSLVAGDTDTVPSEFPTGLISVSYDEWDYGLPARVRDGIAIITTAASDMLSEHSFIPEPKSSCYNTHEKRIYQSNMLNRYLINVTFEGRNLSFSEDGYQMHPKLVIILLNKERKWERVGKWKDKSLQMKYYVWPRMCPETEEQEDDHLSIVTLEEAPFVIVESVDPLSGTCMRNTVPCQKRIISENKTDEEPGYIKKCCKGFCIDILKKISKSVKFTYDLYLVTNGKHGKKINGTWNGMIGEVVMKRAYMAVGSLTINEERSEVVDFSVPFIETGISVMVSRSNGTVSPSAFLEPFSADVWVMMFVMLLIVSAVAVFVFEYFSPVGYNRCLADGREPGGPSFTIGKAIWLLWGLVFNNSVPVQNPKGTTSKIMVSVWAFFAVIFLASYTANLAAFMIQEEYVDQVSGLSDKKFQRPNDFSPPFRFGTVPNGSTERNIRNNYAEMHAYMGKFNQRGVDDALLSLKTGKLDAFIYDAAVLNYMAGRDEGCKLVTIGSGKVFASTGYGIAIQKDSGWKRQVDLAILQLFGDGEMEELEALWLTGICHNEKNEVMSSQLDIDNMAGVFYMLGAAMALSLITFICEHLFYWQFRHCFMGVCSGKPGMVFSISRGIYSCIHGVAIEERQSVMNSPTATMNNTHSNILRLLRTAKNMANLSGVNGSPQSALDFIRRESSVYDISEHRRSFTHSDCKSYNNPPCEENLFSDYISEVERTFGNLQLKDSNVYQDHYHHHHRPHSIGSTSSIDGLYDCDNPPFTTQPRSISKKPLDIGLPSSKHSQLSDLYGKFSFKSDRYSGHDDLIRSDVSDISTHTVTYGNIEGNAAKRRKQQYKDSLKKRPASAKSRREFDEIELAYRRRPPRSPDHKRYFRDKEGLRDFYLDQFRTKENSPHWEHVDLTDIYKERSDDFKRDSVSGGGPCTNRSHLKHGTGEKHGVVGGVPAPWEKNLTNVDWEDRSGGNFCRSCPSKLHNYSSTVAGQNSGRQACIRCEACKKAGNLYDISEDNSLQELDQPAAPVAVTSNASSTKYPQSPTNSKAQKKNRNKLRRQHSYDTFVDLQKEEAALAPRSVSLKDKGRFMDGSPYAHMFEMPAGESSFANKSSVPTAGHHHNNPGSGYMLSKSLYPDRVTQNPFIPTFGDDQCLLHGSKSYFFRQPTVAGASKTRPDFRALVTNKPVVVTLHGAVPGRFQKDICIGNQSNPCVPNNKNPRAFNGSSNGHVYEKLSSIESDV

Compound | IC50 (NMDA-receptor subtype 2B) | melting point
1H-Imidazole, 1-(3,4-Dichlorophenyl)-4-[(4-methyl-1H-imidazol-1-yl)methyl]-, Hydrochloride (1:2) and 1H-Imidazole, 1-(3,4-Dichlorophenyl)-4-[(5-methyl-1H-imidazol-1-yl)methyl]-, Hydrochloride (1:2) (ratio 3:2) [Example 6] | 0.045 µM | –
4-Imidazol-1-ylmethyl-1-(3-methylsulfanyl-phenyl)-1H-imidazole Hydrochloride (1:2) [Example 145] | 0.054 µM | –
CCc1nccn1Cc1cn(-c2ccc3c(c2)CCC3)cn1.Cl.Cl [Example 17, 1H-Imidazole, 1-[[1-(2,3-Dihydro-1H-inden-5-yl)-1H-imidazol-4-yl]methyl]-2-ethyl-, Hydrochloride (1:2)] | 0.012 µM | 240 to 241 °C
Cc1ccc(-n2cnc(Cn3ccnc3)c2)cc1C [Example 21] | 0.043 µM | –
Cc1nccn1Cc1cnn(-c2ccc(Cl)c(Cl)c2)c1 [Example 114, 1-(3,4-Dichloro-phenyl)-4-(2-methyl-imidazol-1-yl-methyl)-1H-pyrazole] | – | 176 to 177 °C
Cc1cc(-c2c[nH]c(Cn3ccnc3C)n2)ccc1F [Example 119, 1H-Imidazole, 1-[[4-(4-Fluoro-3-methylphenyl)-1H-imidazol-2-yl]methyl]-2-methyl-, Hydrochloride (1:2)] | 0.046 µM | –
Cc1ccc(-c2cncc(Cn3ccnc3C)c2)cc1C [Example 130, 3-(3,4-Dimethyl-phenyl)-5-(2-methyl-imidazol-1-yl-methyl)-pyridine Hydrochloride (1:1)] | 0.065 µM | –
Cc1ccc(-c2cncc(Cn3ccnc3C)c2)cc1Cl [Example 136, 3-(3-Chloro-4-methyl-phenyl)-5-(2-methyl-imidazol-1-yl-methyl)-pyridine Hydrochloride (1:1)] | 0.08 µM | –
Cc1nccn1Cc1cncc(-c2ccc3c(c2)CCC3)c1 [Example 139, 3-Indan-5-yl-5-(2-methyl-imidazol-1-yl-methyl)-pyridine Hydrochloride (1:1)] | 0.065 µM | –
Cc1nccn1Cc1cncc(-c2ccc(F)c(Cl)c2)c1 [Example 140, 3-(3-Chloro-4-fluoro-phenyl)-5-(2-methyl-imidazol-1-yl-methyl)-pyridine Hydrochloride (1:1)] | 0.04 µM | –
Cc1nccn1Cc1cncc(-c2ccc(Cl)c(C(F)(F)F)c2)c1 [Example 141, 3-(4-Chloro-3-trifluoromethyl-phenyl)-5-(-2-methyl-imidazol-1-yl-methyl)-pyridine Hydrochloride (1:1)] | 0.039 µM | –
CCc1nccn1Cc1cn(-c2cccc(SC(F)(F)F)c2)cn1 [Example 143] | 0.0073 µM | –
CCc1nccn1Cc1cn(-c2ccc(F)c(C(C)(F)F)c2)cn1 [Example 151, 1H-Imidazole, 1-[[1-1-[3-(1,1-Difluoroethyl)-4-fluorophenyl]-1H-imidazol-4-yl]methyl]-ethyl-, Hydrochloride (1:2)] | 0.014 µM | –
CCc1nccn1Cc1cn(-c2cccc(C(C)C)c2)cn1 [Example 153] | 0.02 µM | –
CCc1nccn1Cc1cn(-c2ccc(F)c(C(F)F)c2)cn1 [Example 164, 1H-Imidazole, 1-[[1-(3-Difluoromethyl-4-fluorophenyl)-1H-imidazol-4-yl]methyl]-2-ethyl-, Hydrochloride (1:2)] | 0.03 µM | –
CSc1cccc(-n2cnc(Cn3ccnc3)c2)c1 [Example 168, 4-Imidazol-1-ylmethyl-1-(3-methylsulfanyl-phenyl)-1H-imidazole Hydrochloride (1:2)] | 0.038 µM | –
CCc1nccn1Cc1cn(-c2cc(OC)cc(C(F)(F)F)c2)cn1 [Example 181] | 0.053 µM | –
Cc1nccn1Cc1cncc(-c2ccc(F)c(C(F)F)c2)c1 [Example 225, 3-(3-Difluoromethyl-4-fluoro-phenyl)-5-(2-methyl-imidazol-1-ylmethyl)-pyridine] | 0.01 µM | –
Cc1nccn1Cc1cncc(-c2cccc(C(C)(F)F)c2)c1 [Example 226, 3-[3-(1,1-Difluoro-ethyl)-phenyl]-5-(2-methyl-imidazol-1-ylmethyl)-pyridine] | 0.02 µM | –
Cc1nccn1Cc1cncc(-c2cc(F)cc(C(F)(F)F)c2)c1 [Example 227, 3-(3-Fluoro-5-trifluoromethyl-phenyl)-5-(2-methyl-imidazol-1-ylmethyl)-pyridine] | 0.03 µM | –
Clc1ccc(-n2cnc(Cn3ccnc3C3CC3)c2)cc1Cl [Example 229, 1H-Imidazole, 2-Cyclopropyl-1-[[1-(3,4-dichlorophenyl)-1H-imidazol-4-yl]methyl]-,] | 0.012 µM | –
Cc1cc(-c2cnc(Cn3ccnc3C)n2C)ccc1F [Example 230, 5-(4-Fluoro-3-methyl-phenyl)-1-methyl-2-(2-methyl-imidazol-1-ylmethyl)-1-H-imidazole Hydrochloride (1:1)] | 0.084 µM | –
Cc1cc(-c2cnc(Cn3ccnc3C)n2C)ccc1Cl [Example 232, 5-(4-Chloro-3-methyl-phenyl)-1-methyl-2-(2-methyl-imidazol-1-ylmethyl)-1-H-imidazole-hydrochloride Hydrochloride (1:1)] | 0.04 µM | –

Further lines, results first:

IC50 (NMDA-receptor subtype 2B) | melting point | Compound
0.007 µM | 241 to 243 °C | CCCc1nccn1Cc1cn(-c2ccc(Cl)c(Cl)c2)cn1.Cl.Cl [Example 1, 1H-Imidazole, 1-[[1-(3,4-Dichlorophenyl)-1H-imidazol-4-yl]methyl]-2-propyl-, Hydrochloride (1:2)]
0.01 µM | > 250 °C | Cc1nccn1Cc1cn(-c2ccc(Cl)c(Cl)c2)cn1.Cl.Cl [Example 2, 1H-Imidazole, 1-[[1-(3,4-Dichlorophenyl)-1H-imidazol-4-yl]methyl]-2-methyl-, Hydrochloride (1:2)]
0.012 µM | > 250 °C | CCc1nccn1Cc1cn(-c2ccc(Cl)c(Cl)c2)cn1.Cl.Cl [Example 3, 1H-Imidazole, 1-[[1-(3,4-Dichlorophenyl)-1H-imidazol-4-yl]methyl]-2-ethyl-, Hydrochloride (1:2)]
0.017 µM | 236 to 238 °C (dec.) | CC(C)c1nccn1Cc1cn(-c2ccc(Cl)c(Cl)c2)cn1.Cl.Cl [Example 4, 1H-Imidazole, 1-[[1-(3,4-Dichlorophenyl)-1H-imidazol-4-yl]methyl]-2-(1-methylethyl)-, Hydrochloride (1:2)]
0.004 µM | 186 to 187 °C | CCc1nccn1Cc1cn(-c2ccc(Cl)c(C)c2)cn1.Cl.Cl [Example 10, 1H-Imidazole, 1-[[1-(4-Chloro-3-methylphenyl)-1H-imidazol-4-yl]methyl]-2-ethyl-, Hydrochloride (1:2)]
0.005 µM | 218 to 220 °C | Cc1cc(-n2cnc(Cn3ccnc3C)c2)ccc1Cl.Cl.Cl [Example 11, 1H-Imidazole, 1-[[1-(4-Chloro-3-methylphenyl)-1H-imidazol-4-yl]methyl]-2-methyl-, Hydrochloride (1:2)]
0.008 µM | 206 to 207 °C | Cc1cc(-n2cnc(Cn3ccnc3)c2)ccc1Cl.Cl.Cl [Example 12, 1H-Imidazole, 1-(4-Chloro-3-methylphenyl)-4-(1H-imidazol-1-yl-methyl)-, Hydrochloride (1:2)]
0.095 µM | > 250 °C | Cc1cc(-n2cnc(Cn3cnc(C)c3C)c2)ccc1Cl.Cl.Cl [Example 13, 1H-Imidazole, 1-[[1-(4-Chloro-3-methylphenyl)-1H-imidazol-4-yl]methyl]-4,5-dimethyl-, Hydrochloride (1:2)]
0.009 µM | 242 to 243 °C | Cc1nccn1Cc1cn(-c2ccc3c(c2)CCC3)cn1.Cl.Cl [Example 16, 1H-Imidazole, 1-[[1-(2,3-Dihydro-1H-inden-5-yl)-1H-imidazol-4-yl]methyl]-2-methyl-, Hydrochloride (1:2)]
0.027 µM | – | CSc1ccc(-n2cnc(Cn3ccnc3C)c2)cc1 [Example 27]
0.001 µM | – | Cc1cc(-n2cnc(Cn3ccnc3N)c2)ccc1Cl [Example 105, 1-[1-(4-Chloro-3-methyl-phenyl)-1H-imidazol-4-yl-methyl]-1H-imidazol-2-yl-amine-, Hydrochloride (1:2)]
– | > 236 °C (dec.) | CC(=O)Nc1nccn1Cc1cn(-c2ccc(Cl)c(Cl)c2)cn1 [Example 110, N-{1-[1-(3,4-Dichloro-phenyl)-1H-imidazol-4-yl-methyl]-1H-imidazol-2-yl}-acetamide]
0.01 µM | – | Cc1nccn1Cc1cn(-c2ccc3ccccc3c2)cn1 [Example 155, 1H-Imidazole, 2-Methyl-1-[[1-(naphtalen-2-yl)-1H-imidazol-4-yl]methyl]-, Hydrochloride (1:2)]
0.028 µM | – | Cc1nccn1Cc1cn(-c2cccc(Cl)c2)cn1 [Example 173]
